Source: EP0344564A1, “Utilisation of special amines or hindering nitrosamine production” (Eisenbrand, Gerhard, Prof. Dr., priority 1988, dated 1989)

Experiment: Nitrosamine formation in aqueous amine / sodium nitrite mixture, comparison with THEDA (Beispiel 4)
Type: physicochemical
Conditions: 20 mM Amin, 20 mM Natriumnitrit, 4 Stunden, 37 °C, pH 4

% gebildetes Nitrosamin bezogen auf eingesetztes Amin: 1,0%
SMILES: CC(O)CN(CCN(CC(C)O)CC(C)O)CC(C)O (stereo not shown) [THEDA, N,N,N′,N′-Tetrakis(2-hydroxypropyl)ethylene-diamin]
